Values of other authors as cited in patent US11406619B2, “Injectable formulations” (priority 2020, dated 2022).

Settings: according to the Human Metabolome Database; cited from earlier work

CN(C)CCc1c[nH]c2ccccc12 [Formulation D0, N,N-dimethyltryptamine]
degradation in solution: degrades relatively quickly in solution
